In EP3138569B1, “COMPOSITION FOR EXTERNAL APPLICATION” (priority 2014, dated 2015):
Read-outs that look alike come from different tables or passages of the source.

What was measured:
[1] = tested on: Normal human epidermal fibroblasts; test: Evaluation of fibroblast-activating effect (MTT, blue formazan); type: cell-based; conditions: for activity at 0.313 % / activity at 0.625 % / activity at 1.25 % / activity at 2.5 % / activity at 5 %: Homo sapiens, Fibroblast, 48 h, blue formazan relative to non-treated cells = 100, n=4, read-out: Index (%); for activity at 0.313 %: 0.313 w/v%; for activity at 0.625 %: 0.625 w/v%; for activity at 1.25 %: 1.250 w/v%; for activity at 2.5 %: 2.500 w/v%; for activity at 5 %: 5.000 w/v%; for fibroblast-activating effect: Student's t-test
Method: Normal human epidermal fibroblasts suspended in a DMEM medium containing a 5% calf serum (FBS) were inoculated in a 96-well plate at a density of 2.0 x 10^4 cells per well. After 24 hours of the inoculation, the medium was exchanged with a 1% calf serum (FBS) -containing DMEM medium (each test solution) which contained trehalulose, isomaltulose, or reduced isomaltulose at the concentrations shown in Table 1 (i.e., each six types of concentrations including 0.000 w/v %). […] Also, 5% FBS-containing DMEM media were used as positive controls (P.C.). After culturing for 48 hours, the medium was exchanged with a 1% FBS-containing DMEM medium which contained 0.4 mg/mL of 3-(4,5-dimethylthiazol-2-yl)-2,5-diphenyltetrazolium bromide (MTT) and cultured for 2 hours. The medium was removed, and when 2-propanol was added, blue formazan generated was extracted. Absorbance of the extract at 550 nm was measured to obtain the amount of blue formazan.

tyrosinase = biological target: T1, tyrosinase (Homo sapiens, UniProt P14679); conditions: for Tyrosinase enzyme activity (µg melanin/µg protein/h): 0.5 mM L-DOPA, 37 °C, 2 hours, n=5; for tyrosinase-inhibiting effect: Student's t-test
T1 sequence (P14679 19-529): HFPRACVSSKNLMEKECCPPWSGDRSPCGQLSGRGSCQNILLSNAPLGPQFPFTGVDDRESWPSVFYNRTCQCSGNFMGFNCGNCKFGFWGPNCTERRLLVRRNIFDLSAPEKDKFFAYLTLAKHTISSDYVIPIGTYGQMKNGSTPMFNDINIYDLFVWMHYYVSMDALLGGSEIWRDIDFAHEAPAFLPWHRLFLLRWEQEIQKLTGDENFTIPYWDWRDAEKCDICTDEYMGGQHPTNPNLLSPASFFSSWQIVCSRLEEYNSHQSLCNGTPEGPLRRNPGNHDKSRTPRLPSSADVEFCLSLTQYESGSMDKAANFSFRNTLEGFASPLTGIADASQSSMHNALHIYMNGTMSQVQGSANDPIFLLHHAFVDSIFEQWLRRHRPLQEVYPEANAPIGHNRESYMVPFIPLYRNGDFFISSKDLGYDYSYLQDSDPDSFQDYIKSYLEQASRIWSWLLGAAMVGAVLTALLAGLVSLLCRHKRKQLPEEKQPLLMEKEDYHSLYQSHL

[2] = tested on: Normal human epidermal fibroblasts; test: Evaluation of reducing effect of oxidative stress induced cell damage (UVB 25 mJ/cm^2, Neutral Red); type: cell-based
Method: (§1) When cells are irradiated with UVB, reactive oxygen species (such as a superoxide anion radical, hydrogen peroxide, and a hydroxyl radical) generate. The viability of cells obtained when the cells were irradiated with UVB was used as index to evaluate the reducing effect of the oxidative stress induced cell damage.
(§2) Normal human epidermal fibroblasts suspended in a KG2 medium were inoculated in a 96-well plate at a density of 2.0 x 10^4 cells per well. After 24 hours of the inoculation, the medium was exchanged with a KG2 medium (each test solution) which contained trehalulose or reduced isomaltulose at the concentrations shown in Table 2 (i.e., each six types of concentrations including 0.000 w/v %) and cultured for 24 hours. […] Also, groups that were not irradiated with UVB were provided as control groups. After culturing, the medium was exchanged with a KB2 medium containing 33 µg/mL of Neutral Red (NR) and was cultured for 2 hours. After culturing, the cells were washed with PBS, and NR captured within the cells was extracted with a 0.1M HCl solution containing 30% (v/v) ethanol. Absorbance of the extract at 550 nm was measured.
Except that the each test solution was changed to a KG2 medium which contained isomaltulose at the concentrations shown in Table 4 (i.e., six types of concentrations including 0.000 w/v %) and that the irradiation intensity of UVB was changed to 25 mJ/cm^2, the reducing effect of the oxidative stress induced cell damage was evaluated according to the same procedure as in Example 2.

[3] = tested on: Normal human epidermal fibroblasts; test: Evaluation of reducing effect of oxidative stress induced cell damage (UVB 20 mJ/cm^2, Neutral Red); type: cell-based
Method: as §1, §2

SMILES	activity at 0.313 % [1]	activity at 0.625 % [1]	activity at 1.25 % [1]	activity at 2.5 % [1]	activity at 5 % [1]	fibroblast-activating effect [1]	Tyrosinase enzyme activity (µg melanin/µg protein/h) (tyrosinase; 0.094 w/v%)	Tyrosinase enzyme activity (µg melanin/µg protein/h) (tyrosinase; 0.188 w/v%)	Tyrosinase enzyme activity (µg melanin/µg protein/h) (tyrosinase; 0.375 w/v%)	Tyrosinase enzyme activity (µg melanin/µg protein/h) (tyrosinase; 0.750 w/v%)	Tyrosinase enzyme activity (µg melanin/µg protein/h) (tyrosinase; 1.500 w/v%)	Tyrosinase enzyme activity (µg melanin/µg protein/h) (tyrosinase; 3.000 w/v%)	tyrosinase-inhibiting effect (tyrosinase)	further results
O=C(CO)[C@@H](O)[C@H](O)[C@H](O)CO[C@H]1O[C@H](CO)[C@@H](O)[C@H](O)[C@H]1O [Isomaltulose, 6-O-α-D-glucopyranosyl-D-fructose]	101 ± 2%	107 ± 4.4%	111 ± 2.3%	113 ± 2.1%	112%	significant fibroblast-activating effect	0.205 ± 0.004 µg melanin/µg protein/h	0.208 ± 0.003 µg melanin/µg protein/h	0.200 ± 0.006 µg melanin/µg protein/h	0.196 ± 0.004 µg melanin/µg protein/h	0.190 ± 0.003 µg melanin/µg protein/h	0.184 ± 0.004 µg melanin/µg protein/h	significant tyrosinase-inhibiting effect	viability at 0.013 % ([2]; Homo sapiens, Fibroblast, light or radiation study, 24 h, 0.013 w/v%, absorbance relative to UVB non-irradiated group = 100, n=4, read-out: Index (%)): 80 ± 1.8%; viability at 0.025 % ([2]; Homo sapiens, Fibroblast, light or radiation study, 24 h, 0.025 w/v%, absorbance relative to UVB non-irradiated group = 100, n=4, read-out: Index (%)): 83.7 ± 3.5%; viability at 0.05 % ([2]; Homo sapiens, Fibroblast, light or radiation study, 24 h, 0.050 w/v%, absorbance relative to UVB non-irradiated group = 100, n=4, read-out: Index (%)): 84.3 ± 1.1%; viability at 0.1 % ([2]; Homo sapiens, Fibroblast, light or radiation study, 24 h, 0.100 w/v%, absorbance relative to UVB non-irradiated group = 100, n=4, read-out: Index (%)): 86.2 ± 2.5%; viability at 0.2 % ([2]; Homo sapiens, Fibroblast, light or radiation study, 24 h, 0.200 w/v%, absorbance relative to UVB non-irradiated group = 100, n=4, read-out: Index (%)): 86.8 ± 2.9%; reducing effect of cell damage ([2]; Student's t-test): significant reducing effect of cell damage
O=C(CO[C@H]1O[C@H](CO)[C@@H](O)[C@H](O)[C@H]1O)[C@@H](O)[C@H](O)[C@H](O)CO [Trehalulose, 1-O-α-D-glucopyranosyl-D-fructose]	101 ± 2.4%	104 ± 2.5%	106.9 ± 0.8%	112 ± 1.4%	114 ± 5.8%	significant fibroblast-activating effect	0.251 ± 0.034 µg melanin/µg protein/h	0.251 ± 0.051 µg melanin/µg protein/h	0.244 ± 0.044 µg melanin/µg protein/h	0.232 ± 0.028 µg melanin/µg protein/h	0.197 ± 0.004 µg melanin/µg protein/h	0.188 ± 0.004 µg melanin/µg protein/h	significant tyrosinase-inhibiting effect	viability at 0.125 % ([3]; Homo sapiens, Fibroblast, light or radiation study, 24 h, 0.125 w/v%, absorbance relative to UVB non-irradiated group = 100, n=4, read-out: Index (%)): 80.7 ± 2.7%; viability at 0.25 % ([3]; Homo sapiens, Fibroblast, light or radiation study, 24 h, 0.250 w/v%, absorbance relative to UVB non-irradiated group = 100, n=4, read-out: Index (%)): 82 ± 4.1%; viability at 0.5 % ([3]; Homo sapiens, Fibroblast, light or radiation study, 24 h, 0.500 w/v%, absorbance relative to UVB non-irradiated group = 100, n=4, read-out: Index (%)): 86.5 ± 1.3%; viability at 1 % ([3]; Homo sapiens, Fibroblast, light or radiation study, 24 h, 1.000 w/v%, absorbance relative to UVB non-irradiated group = 100, n=4, read-out: Index (%)): 93 ± 0.4%; viability at 2 % ([3]; Homo sapiens, Fibroblast, light or radiation study, 24 h, 2.000 w/v%, absorbance relative to UVB non-irradiated group = 100, n=4, read-out: Index (%)): 94.8 ± 1%; reducing effect of cell damage ([3]; Student's t-test): significant reducing effect of cell damage
